Data published in the SangsterLogP compilation.

Assay: method code SF-HPLC, from DOI: 10.1248/cpb.46.274

Row | logP | Compound
1 | 3.5 | O=C(C=Cc1ccccc1Cl)C(F)(F)F
2 | 3.13 | CC(=O)/C=C/c1ccc(C(F)(F)F)cc1
3 | 3.14 | CC(=O)/C=C/c1ccccc1C(F)(F)F
4 | 3.39 | COc1ccccc1C=CC(=O)C(F)(F)F
5 | 2.66 | CC(=O)/C=C/c1ccc(N(C)C)cc1
6 | 2.73 | CCOc1ccc(C=CC(C)=O)cc1
7 | 2.25 | CC(=O)C=Cc1cccc(F)c1
8 | 2.65 | CC(=O)C=Cc1ccc(C)cc1
9 | 2.45 | N#Cc1cccc(/C=C/C(=O)C(F)(F)F)c1
10 | 2.66 | O=C(C=Cc1cccc([N+](=O)[O-])c1)C(F)(F)F
11 | 3.26 | CCc1ccc(/C=C/C(C)=O)cc1
12 | 3.03 | CC(=O)/C=C/c1cccc(C(F)(F)F)c1
13 | 1.63 | CC(=O)C=Cc1ccc(OC(C)=O)cc1
14 | 3.58 | O=C(C=Cc1cccc(Cl)c1)C(F)(F)F
15 | 2.34 | CC(=O)/C=C/c1ccccc1F
16 | 2.85 | CC(=O)/C=C/c1ccccc1Cl
17 | 2.81 | CC(=O)/C=C/c1cccc(Cl)c1
18 | 2.42 | N#Cc1ccc(C=CC(=O)C(F)(F)F)cc1

Further lines, the compound ahead of its results:

Row | Compound | logP
19 | CC(=O)/C=C/c1ccccc1C | 2.6
20 | CC(=O)C=Cc1ccc(Br)cc1 | 3.03
21 | CC(=O)/C=C/c1ccccc1O | 2.19
22 | CC(=O)C=Cc1ccc(C#N)cc1 | 1.64
23 | COc1ccccc1/C=C/C(C)=O | 2.42
24 | CC(=O)/C=C/c1cccc([N+](=O)[O-])c1 | 1.88
25 | CC(=O)/C=C/c1cccc(C)c1 | 2.68
26 | CC(=O)/C=C/c1cccc(Br)c1 | 3.02
27 | CC(=O)C=Cc1cccc(C#N)c1 | 1.59
28 | COc1ccc(/C=C/C(C)=O)cc1 | 2.25
29 | CC(=O)C=Cc1ccc(F)cc1 | 2.22
30 | O=C(C=Cc1ccc(Cl)cc1)C(F)(F)F | 3.63
31 | COc1ccc(C=CC(=O)C(F)(F)F)cc1 | 3.33
32 | CC(=O)/C=C/c1ccc(Cl)cc1 | 2.8
33 | COc1cccc(/C=C/C(C)=O)c1 | 2.27
34 | COc1cccc(C=CC(=O)C(F)(F)F)c1 | 3.05
35 | CC(=O)/C=C/c1ccc(O)cc1 | 1.86
36 | O=C(C=Cc1ccccc1)C(F)(F)F | 3.01
